Data set [1] has as its system HIV-1LAI. The data set is described as follows: EASY-HIT assay: infectious virus production by LC5-RIC reporter cells exposed to HIV-1LAI. The format is cell-based. To be noted: for Infectious virus production, median (fluorescent signal normalized to untreated virus-exposed cultures): 50 nM, LC5-RIC, secondary plates 72 h after transfer. As for the experimental part: To identify natural compounds with anti-HIV activity we screened a collection of 10,000 natural compounds: Anti-HIV activity was evaluated by determining compound effects on infectious virus production by LC5-RIC cells which are highly susceptible for HIV and contain a DsRed1-encoding reporter gene activated by HIV-infection[6]–[8]. For screening, cultures of LC5-RIC reporter cells were first exposed to virus in the presence of the compound (first-step of the assay). Subsequently, supernatants of these cultures were transferred to secondary plates with uninfected LC5-RIC cells. The fluorescent signal of the cultures in the secondary plates served as a measure of compound effects on infectious virus production.
Anti-HIV activities of compounds were profiled in LC5-RIC cells with the EASY-HIT assay as described in[6]. Briefly, LC5-RIC cells were first exposed to virus and compounds (first step of the assay). Compound effects on infectious virus production were determined by transferring aliquots of supernatants of compound-treated cultures to secondary plates and measurement of fluorescent signal intensities in secondary plates after 72 h (second step of the assay). Fluorescent signal intensities determined for compound-treated cultures were normalized to those determined for untreated virus-exposed cultures.

The test system of data set [2] is HIV-1LAI. In words: Inhibition of HIV infection of human PBMCs (infectious virus production, read out on LC5-RIC cells). The format is cell-based. To be noted: mean ± SD. As to the method:
(§1) To evaluate anti-HIV efficacies of test compounds in primary human target cells, stimulated PBMCs were seeded in 96-well plates at a density of 500,000 cells per well, different #7concentrations of the compound (serial dilutions) and virus inoculum (MOI of 0.5) added to the PBMCs and cultures incubated for 48 h. Infectious virus production was quantified by transferring 35 µl of supernatant from the PBMC cultures to LC5-RIC cells, seeded in black 96-well plates one day earlier. LC5-RIC cultures were then incubated for 72 h and analysed for DsRed1 reporter expression and anti-HIV activity calculated as described for the EASY-HIT assay.

The target of data set [3] is T1, recombinant HIV-1 reverse transcriptase (Human immunodeficiency virus type 1 group M subtype B, UniProt P04585).
T1 construct: using 4 ng recombinant HIV-1 reverse transcriptase; purchased Roche
The data set is described as follows: HIV Reverse Transcriptase Activity Assay (colorimetric kit). The format is biochemical. To be noted: 10 µM. As to the method:
HIV Reverse Transcriptase Activity Assay. To determine the inhibitory effect of test compounds against HIV reverse transcriptase activity, the colorimetric Reverse Transcriptase Assay Kit (Roche) was performed according to manufacturer’s protocol using 4 ng recombinant HIV-1 reverse transcriptase. Efavirenz was used as reference compound.

Data set [4] addresses T2, HIV integrase (Human immunodeficiency virus type 1 group M subtype B, UniProt P04585).
T2 construct: purchased XpressBio
In words: HIV Integrase Activity Assay (HIV-1 Integrase Assay Kit). It counts as biochemical. To be noted: 10 µM. As to the method:
HIV Integrase Activity Assay. To evaluate the inhibitory effect of test compounds to counteract HIV integrase activity, the HIV-1 Integrase Assay Kit (XpressBio) was conducted according to manufacturer’s recommendations. Dolutegravir was used as reference inhibitor.

In data set [5] the test system is PBMC proteome. The data set is described as follows: Proteomics (LC-MSMS) of PBMCs treated with compound #7, with or without HIV exposure. It counts as cell-based, human. The settings on record: PBMCs from three donors; ≥2-fold change. As for the experimental part:
Stimulated PBMCs or CD4+ cells (5,000,000 cells) were seeded into 12-well plates before compound treatment and inoculation with HIV-1LAI at an MOI of 0.5, followed by 48 h incubation at 37 °C, 5% CO2. HIV inhibition was confirmed by quantifying infectious virus production in LC5-RIC cells as described above. Protein lysates were prepared from cells harvested, washed with PBS and lysed by incubating the cells for 10 min at 4 °C in lysis buffer (100 mM Tris-HCl pH 8.3, 150 mM NaCl, 1% glycerol, 1% NP-40, 0.5% deoxycholate, 0.1% SDS, 0.1% Triton-X100) and centrifuged for 20 min at 4 °C, 16,000 g to clear protein lysates. Protein concentrations were determined by using the Pierce^TM BCA Protein Assay Kit (ThermoFisher Scientific) according to manufacturer’s protocol. The proteomes of PBMCs from three different donors were analysed by LC-MSMS and data enrichment analysis was carried out using GeneRanker (Intrexon). For detailed information see Supplementary Methods.
After measuring the protein concentration of the cell lysates equal total protein amounts (10 µg per sample) were proteolysed with trypsin as described ^4 by a modified filter-aided sample preparation (FASP) procedure ^5.
Data analysis. The results from three donors were regarded as biological replicates. […]

Data set [6] concerns HIV-1LAI. The data set is described as follows: Photostability of anti-HIV activity (24 h illumination vs dark, EASY-HIT read-out). It counts as cell-based. To be noted: 24 h illumination vs same compound kept in the dark; compounds at IC90; LC5-RIC. As to the method:
Figure 1 Profiling of photostability of anti-HIV activity of Aureothin and synthetic Aureothin-derivatives. Anti-HIV activity of compound samples illuminated for 24 h were normalised to anti-HIV activity of samples of the same compound kept in the dark. Anti-HIV activity was measured by quantifying the amounts of infectious virus produced by HIV-1LAI exposed LC5-RIC cells treated with compounds at IC90 concentrations (Supplementary Table S1). […] Shown are means of at least three independent experiments with biological triplicates (n ≥ 3; m = 3) and the standard error of the mean (SEM) indicated.
LC5-RIC cells were plated as described for the EASY-HIT assay. […] Plates were incubated either in the dark or under constant illumination with a commercially available desk lamp (2X Philips Master PL-S-9W/840/2 P, 30 cm between light source and compounds) for 24 h at room temperature. For analysis of anti-HIV activity, compound samples were transferred to LC5-RIC cells and their anti-HIV activity determined by measuring compound effects on infectious virus production with the EASY-HIT assay. Relative photostability was calculated by normalizing the anti-HIV activity of the illuminated compounds to the antiviral activity of compounds kept in the dark.

In data set [7] the test system is HIV-2MVP10668-93. In words: Inhibition of clinical isolate HIV-2 MVP10668-93 in PBMCs. It counts as cell-based, HIV-type 2. The settings on record: Human immunodeficiency virus 2, PBMC.
Text: Clinical isolates represented the following HIV genotypes: HIV-1MMVP899-87: HIV-type 1, Major group; HIV-1OMVP5180-91: HIV-type 1, Outlier group; HIV-2MVP10668-93: HIV-type 2; HIV-1V13-03413B: HIV-type 1, Major group/B-clade, isolate with multiple drug-resistance mutations. Depicted are the means of three independent experiments with biological triplicates (n = 3; m = 3) and standard deviations (SD).
Isolation of primary clinical HIV-isolates HIV-1MMVP899-87, HIV-1OMVP5180-91, HIV-1V13-03413B and HIV-2MVP10668-93 is described in[43]. The HIV-1 M group/B-clade isolate (HIV-1V13-03413B) was isolated from a patient with virological treatment failure. Clinical isolates were produced from HIV infected H9 cells as described.
as §1

In the case of `CN1CC[C@H](c2c(O)cc(O)c3c(=O)cc(-c4ccccc4Cl)oc23)[C@H](O)C1` [Flavopiridol], in data set [1], the “Infectious virus production, median (fluorescent signal normalized to untreated virus-exposed cultures)” value is 10.38. Moreover, the IC50 in data set [1] (Human immunodeficiency virus 1, read-out: Anti-HIV in LC5-RIC, IC50) stood at 10.9 ± 0.5 nM; in data set [2] (Human immunodeficiency virus 1, Table S2, PBMC, read-out: Anti-HIV in PBMC, IC50) it was 35.6 ± 3.46 nM.
Take `COc1oc(C2C/C(=C/C(C)=C/c3ccc(C(F)(F)F)cc3)CO2)c(C)c(=O)c1C` (stereo not shown) [compound #7]: the “Infectious virus production, median (fluorescent signal normalized to untreated virus-exposed cultures)” value in data set [1] is listed as 0.96. Further, the IC90 is 13.4 ± 1.75 nM in data set [1] (Human immunodeficiency virus 1, read-out: IC90, 90% inhibitory concentration); 11.7 nM in data set [7] (read-out: IC90 value, HIV-2 MVP10668-93); less than 45 nM in data set [2] (Human immunodeficiency virus 1, PBMC, read-out: IC90, 90% HIV-inhibitory concentration, human PBMCs exposed to HIV-1LAI); 41 ± 1.23 nM in data set [2] (read-out: IC90, 90% HIV-inhibitory concentration, human PBMCs exposed to HIV-1LAI). Also, the IC50 was less than 10 nM in data set [1] (LC5-RIC cells exposed to HIV-1LAI, infectious virus production, mean ± SD, listed as #7, read-out: IC50, half maximal inhibitory concentration); 4.9 ± 0.16 nM in data set [1] (LC5-RIC cells exposed to HIV-1LAI, infectious virus production, mean ± SD, read-out: IC50, half maximal inhibitory concentration); 3.88 nM in data set [7] (read-out: IC50 value, HIV-2 MVP10668-93); 10.3 ± 0.65 nM in data set [2] (Human immunodeficiency virus 1, PBMC, human PBMCs exposed to HIV-1LAI, read-out: IC50, half maximal HIV-inhibitory concentration). Besides, the “inhibitory effect on Reverse transcriptase activity” value in data set [3] is given as “no inhibitory effects”. Further, in data set [4], the “inhibitory effect on Integrase activity” value is recorded as “no inhibitory effects”. In addition, in data set [5], the “proportion of differentially expressed proteins (of total proteins detected)” value is less than 10%. In data set [6], the “anti-HIV activity retained after exposure to light” value is given as “over 95%”.

The values are drawn from publication PMC6987146, “Potent inhibition of HIV replication in primary human cells by novel synthetic polyketides inspired by Aureothin” (Scientific Reports, 2020).
